pIC50, pKd: −log10 of the molar value.
Key:
[1] = biological target: GDP-bound HRAS wild-type protein (Homo sapiens, UniProt P01112); experiment: Binding to HRAS by surface plasmon resonance (SPR), Single Cycle Kinetics; settings: SPR; KD ratio class
[2] = test system: human lung cancer strain NCI-H441; settings: read-out: NCI-H441 IC50; NCI-H441 cells, 4 days, CellTiter-Glo
[3] = biological target: GDP-bound KRAS wild-type protein (Homo sapiens, UniProt P01116); experiment: Binding to KRAS by surface plasmon resonance (SPR), Single Cycle Kinetics; settings: SPR, Single Cycle Kinetics; GDP-bound KRAS wild-type protein
[4] = biological target: GDP-bound NRAS wild-type protein (Homo sapiens, UniProt P01111); experiment: Binding to NRAS by surface plasmon resonance (SPR), Single Cycle Kinetics; settings: SPR; KD ratio class
Chain of GDP-bound NRAS wild-type protein (P01111 whole entry): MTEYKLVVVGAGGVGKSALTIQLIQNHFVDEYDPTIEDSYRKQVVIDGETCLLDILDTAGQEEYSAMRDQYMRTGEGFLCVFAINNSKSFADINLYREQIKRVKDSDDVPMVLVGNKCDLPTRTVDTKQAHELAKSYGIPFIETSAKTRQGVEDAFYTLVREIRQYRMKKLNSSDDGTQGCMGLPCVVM

Chain of GDP-bound HRAS wild-type protein (P01112 whole entry): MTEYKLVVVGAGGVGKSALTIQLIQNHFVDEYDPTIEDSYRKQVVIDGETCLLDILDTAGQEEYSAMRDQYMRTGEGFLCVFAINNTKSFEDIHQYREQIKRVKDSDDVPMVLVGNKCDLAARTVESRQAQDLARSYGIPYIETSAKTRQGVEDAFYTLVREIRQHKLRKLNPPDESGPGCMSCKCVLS

| SMILES | HRAS/KRAS (ratio of KD value for GDP-bound HRAS wild-type protein to KD value for KRAS) [1] | pIC50 [2] | pKd [3] | NRAS/KRAS (ratio of KD value for GDP-bound NRAS wild-type protein to KD value for KRAS) [4] |
| --- | --- | --- | --- | --- |
| CCO[C@@H]1C[C@H]2C(=O)NC3(CCC3)C(=O)N(C)[C@@H](C3CCCC3)C(=O)N(C)[C@H](C(=O)N(C)C)CC(=O)N(C)[C@@H](CC3CC3)C(=O)N[C@@H]([C@@H](C)CC)C(=O)N(C)CC(=O)N(C)[C@H]3C/C=C\CCN(C3=O)[C@@H](Cc3ccc(C(F)(F)F)cc3)C(=O)N(C)CC(=O)N[C@@H](CCc3ccc(C(F)(F)F)c(OC)c3)C(=O)N2C1 [PP1247] | A (a compound having 10 or more and less than 20 is denoted as A) | 8.19 | 10.34 | A (a compound having 10 or more and less than 20 is denoted as A) |
| CCO[C@@H]1C[C@H]2C(=O)NC3(CCC3)C(=O)N(C)[C@@H](C3CCCC3)C(=O)N(C)[C@H](C(=O)N(C)C)CC(=O)N(C)[C@@H](CC3CC3)C(=O)N[C@@H]([C@@H](C)CC)C(=O)N(C)CC(=O)N(C)[C@H]3C/C=C\CCN(C3=O)[C@@H](Cc3ccc(C(F)(F)F)cc3)C(=O)N(C)CC(=O)N[C@@H](CCc3ccc(Cl)c(Cl)c3)C(=O)N2C1 [PP1253] | A (a compound having 10 or more and less than 20 is denoted as A) | 7.65 | 9.70 | A (a compound having 10 or more and less than 20 is denoted as A) |
| CCO[C@@H]1C[C@H]2C(=O)NC3(CCC3)C(=O)N(C)[C@@H](C3CCCC3)C(=O)N(C)[C@H](C(=O)N(C)C)CC(=O)N(C)[C@@H](CC3CCCC3)C(=O)N[C@@H]([C@@H](C)CC)C(=O)N(C)CC(=O)N(C)[C@H]3C/C=C\CCN(C3=O)[C@@H](Cc3ccc(C(F)(F)F)cc3)C(=O)N(C)CC(=O)N[C@@H](CCc3ccc4sccc4c3)C(=O)N2C1 [PP1261] | A (a compound having 10 or more and less than 20 is denoted as A) | 7.11 | 9.36 | A (a compound having 10 or more and less than 20 is denoted as A) |
| CCOC[C@H]1C(=O)N[C@@H]([C@@H](C)CC)C(=O)N(C)CC(=O)N(C)[C@H]2C/C=C\CCN(C2=O)[C@@H](Cc2ccc(C(F)(F)F)cc2)C(=O)N(C)CC(=O)N[C@@H](CCc2cc(F)c(C(F)(F)F)c(F)c2)C(=O)N2C[C@H](OCC)C[C@H]2C(=O)NC2(CCC2)C(=O)N(C)[C@@H](C2CCCC2)C(=O)N(C)[C@H](C(=O)N(C)C)CC(=O)N1C [PP1266] | A (a compound having 10 or more and less than 20 is denoted as A) | 7.91 | 10.35 | A (a compound having 10 or more and less than 20 is denoted as A) |
| CCO[C@@H]1C[C@H]2C(=O)NC3(CCC3)C(=O)N(C)[C@@H](C3CCCC3)C(=O)N(C)[C@H](C(=O)N(C)C)CC(=O)N(C)[C@@H](COCC(F)(F)F)C(=O)N[C@@H]([C@@H](C)CC)C(=O)N(C)CC(=O)N(C)[C@H]3C/C=C\CCN(C3=O)[C@@H](Cc3ccc(C(F)(F)F)cc3)C(=O)N(C)CC(=O)N[C@@H](CCc3cc(F)c(C(F)(F)F)c(F)c3)C(=O)N2C1 [PP1267] | A (a compound having 10 or more and less than 20 is denoted as A) | 7.97 | 10.34 | A (a compound having 10 or more and less than 20 is denoted as A) |
| CCO[C@@H]1C[C@H]2C(=O)NC3(CCC3)C(=O)N(C)[C@@H](C3CCCC3)C(=O)N(C)[C@H](C(=O)N(C)C)CC(=O)N(C)[C@@H](COC3CC3)C(=O)N[C@@H]([C@@H](C)CC)C(=O)N(C)CC(=O)N(C)[C@H]3C/C=C\CCN(C3=O)[C@@H](Cc3ccc(C(F)(F)F)cc3)C(=O)N(C)CC(=O)N[C@@H](CCc3cc(F)c(C(F)(F)F)c(F)c3)C(=O)N2C1 [PP1268] | A (a compound having 10 or more and less than 20 is denoted as A) | 7.92 | 10.35 | A (a compound having 10 or more and less than 20 is denoted as A) |

— patent US20250230193A1, “CYCLIC COMPOUND HAVING SELECTIVE KRAS INHIBITORY EFFECT ON HRAS AND NRAS” (CHUGAI SEIYAKU KABUSHIKI KAISHA, priority 2022, published 2025)
